Experimental data taken from ChEMBL document CHEMBL4706557, “Synthesis and in vitro and in vivo biological evaluation of novel derivatives of flexicaulin A as antiproliferative agents” (Eur J Med Chem, 2020).
Activity calls are given as the source filed them. The rule behind the calls is not given here.

Key:
[1] = system: ECa-109 cell line; test: Antitumor activity against human EC109 cells xenografted in nude BALB/c mouse assessed as reduction in tumor weight at 40 mg/kg, ip administered every day for 14 days; format: functional, organism-based; details: time 14.0 day
[2] = system: MCF7; test: Antiproliferative activity against human MCF7 cells assessed as inhibition of cell growth incubated for 72 hrs by SRB assay; format: functional, cell-based; details: MCF7, 72 h
[3] = system: ECa-109 cell line; test: Antiproliferative activity against human EC109 cells assessed as reduction in survival rate after 24 to 72 hrs by SRB assay; format: functional, cell-based; details: time 24-72 hrs
[4] = system: ECa-109 cell line; test: Antiproliferative activity against human EC109 cells assessed as reduction in survival rate at 0 to 8 uM by SRB assay; format: functional, cell-based; details: dose 0-8 µM, TDE = time-dependent effect
[5] = system: HUVEC; test: Cytotoxicity against HUVEC assessed as inhibition of cell growth incubated for 72 hrs by SRB assay; format: cell-based; details: Homo sapiens
[6] = system: ECa-109 cell line; test: Induction of apoptosis in human EC-109 cells assessed as apoptotic rate at 0.75 uM after 24 hrs by Annexin V-FITC/propidium iodide staining based flow cytometry (reference value: 5.3 %); format: functional
[7] = system: ECa-109 cell line; test: Induction of apoptosis in human EC-109 cells assessed as apoptotic rate at 3 uM after 24 hrs by Annexin V-FITC/propidium iodide staining based flow cytometry (reference value: 5.3 %); format: functional
[8] = system: ECa-109 cell line; test: Induction of apoptosis in human EC-109 cells assessed as apoptotic rate at 1.5 uM after 48 hrs by Annexin V-FITC/propidium iodide staining based flow cytometry (reference value: 3.2 %); format: functional
[9] = system: ECa-109 cell line; test: Induction of mitochondrial depolarization in human EC-109 cells assessed as depolarized cell population at 0.75 uM measured after 24 hrs by JC1 dye based flow cytometry (reference value: 4.2 %); format: functional
[10] = system: ECa-109 cell line; test: Induction of mitochondrial depolarization in human EC-109 cells assessed as depolarized cell population at 3 uM measured after 24 hrs by JC1 dye based flow cytometry (reference value: 4.2 %); format: functional
[11] = system: ECa-109 cell line; test: Induction of apoptosis in human EC109 cells assessed as reduction in Bcl-2 protein expression incubated for 24 hrs by Western blot analysis; format: functional, cell-based
[12] = system: ECa-109 cell line; test: Induction of apoptosis in human EC109 cells assessed as increase in BimEL expression after 24 hrs by Western blot analysis; format: functional, cell-based
[13] = system: ECa-109 cell line; test: Induction of apoptosis in human EC109 cells assessed as increase in BimS expression after 24 hrs by Western blot analysis; format: functional, cell-based
[14] = system: ECa-109 cell line; test: Induction of apoptosis in human EC109 cells assessed as activation of c-jun phosphorylation at Ser63 residue at 0.75 to 3 uM incubated for 24 hrs by Western blot analysis; format: functional, cell-based; details: dose 0.75-3 µM
[15] = system: ECa-109 cell line; test: Antiproliferative activity against human EC109 cells assessed as inhibition of cell growth at 0.06 to 4 uM preincubated with N-acetylcysteine for 4 hrs followed by compound addition and measured after 24 hrs by SRB assay; format: functional, cell-based; details: dose 0.06-4 µM
[16] = system: ECa-109; test: Inhibition of clone formation in human EC109 cells at 0.5 uM after 7 days in presence of N-acetylcysteine by crystal violet staining based assay; format: functional, cell-based; details: time 7.0 day
[17] = system: ECa-109 cell line; test: Induction of morphological changes in human EC109 cells assessed as appearance of contracted and rounded cells in presence of N-acetylcysteine; format: functional, cell-based
[18] = system: ECa-109 cell line; test: Induction of apoptosis in human EC109 cells assessed as increase in intracellular ROS level at 3 uM incubated for 24 hrs by DCFH-DA staining based flow cytometry analysis (reference value: 0.6 %); format: functional
[19] = system: ECa-109 cell line; test: Induction of apoptosis in human EC109 cells assessed as increase in intracellular ROS level at 3 uM preincubated with N-acetylcysteine for 4 hrs followed by compound addition and incubated for 24 hrs by DCFH-DA staining based flow cytometry analysis (reference value: 0.6 %); format: functional
[20] = system: ECa-109 cell line; test: Induction of mitochondrial depolarization in human EC-109 cells assessed as depolarized cell population at 3 uM preincubated with N-acetylcysteine for 4 hrs followed by compound addition and measured after 24 hrs by JC1 dye based flow cytometry (reference value: 4.2 %); format: functional
[21] = system: ECa-109 cell line; test: Induction of apoptosis in human EC-109 cells assessed as apoptotic rate at 3 uM after 24 hrs by Annexin V-FITC/propidium iodide staining based flow cytometry (reference value: 5.7 %); format: functional
[22] = system: ECa-109 cell line; test: Induction of apoptosis in human EC109 cells assessed as reduction in Bcl-2 expression at 3 uM incubated for 24 hrs in presence of N-acetylcysteine by Western blot analysis; format: functional, cell-based
[23] = system: ECa-109 cell line; test: Induction of apoptosis in human EC109 cells assessed as increase in cleaved caspase 3 expression at 3 uM incubated for 24 hrs in presence of N-acetylcysteine by Western blot analysis; format: functional, cell-based
[24] = system: ECa-109 cell line; test: Induction of apoptosis in human EC-109 cells xenografted in nude BALB/c mouse assessed as reduction in number of cells at 20 to 40 mg/kg, ip administered once daily for 14 days by H and E staining based histopathological analysis; format: functional, organism-based; details: dose 20-40 mg/kg, time 14.0 day
[25] = system: ECa-109 cell line; test: Induction of apoptosis in human EC-109 cells xenografted in BALB/c mouse assessed as decrease in Bcl-2 expression in tumor tissue at 20 to 40 mg/kg, ip QD for 14 days by Western blotting analysis relative to control; format: functional, organism-based; details: dose 20-40 mg/kg, time 14.0 day
[26] = system: ECa-109 cell line; test: Induction of apoptosis in human EC-109 cells xenografted in BALB/c mouse assessed as change in Bax expression in tumor tissue at 20 mg/kg, ip QD for 14 days by Western blotting analysis relative to control; format: functional, organism-based; details: time 14.0 day
[27] = system: ECa-109 cell line; test: Induction of apoptosis in human EC-109 cells xenografted in BALB/c mouse assessed as increase in cytochrome C in tumor tissue at 40 mg/kg, ip QD for 14 days by Western blotting analysis relative to control; format: functional, organism-based; details: time 14.0 day
[28] = system: ECa-109 cell line; test: Induction of apoptosis in human EC-109 cells xenografted in BALB/c mouse assessed as increase in cleaved caspase 9 in tumor tissue at 40 mg/kg, ip QD for 14 days by Western blotting analysis relative to control; format: functional, organism-based; details: time 14.0 day
[29] = system: ECa-109 cell line; test: Induction of apoptosis in human EC-109 cells xenografted in BALB/c mouse assessed as increase in cleaved caspase 3 in tumor tissue at 40 mg/kg, ip QD for 14 days by Western blotting analysis relative to control; format: functional, organism-based; details: time 14.0 day
[30] = Toxicity in BALB/c mouse assessed as HCT at 20 mg/kg, ip administered once daily for 14 days (reference value: 49.08 +/- 1.56 %); format: organism-based; details: in vivo, 336 h, time 14 day
[31] = Toxicity in BALB/c mouse assessed as HCT at 40 mg/kg, ip administered once daily for 14 days (reference value: 49.08 +/- 1.56 %); format: organism-based; details: in vivo, 336 h, time 14 day
[32] = Toxicity in BALB/c mouse assessed as MCV at 40 mg/kg, ip administered once daily for 14 days (reference value: 49.90 +/- 0.37 fL); format: organism-based; details: in vivo, 336 h, time 14 day
[33] = Toxicity in BALB/c mouse assessed as effect on glomeruli in kidney at 20 to 40 mg/kg, ip administered once daily for 14 days by HE staining based assay; format: organism-based; details: in vivo, 336 h, dose 20-40 mg/kg, time 14 day

## C=C1C(=O)[C@@]23[C@H](O)C[C@@H]4C(C)(C)CCC[C@@]4(COC(C)=O)[C@@H]2[C@@H](O)C[C@H]1[C@H]3OC(=O)c1ccc(CCl)cc1
[1]
  inhibition: Active
[2]
  IC50: 350 nM
[3]
  inhibition: Dose-dependent effect
[4]
  inhibition: Tde
[5]
  IC50: 490 nM
[6]
  Activity: 23.3%
[7]
  Activity: 45.4%
[8]
  Activity: 93.1%
[9]
  Activity: 26.3%
[10]
  Activity: 70.7%
[11]
  Activity: Dose-dependent effect
[12]
  Activity: Dose-dependent effect
[13]
  Activity: Dose-dependent effect
[14]
  Activity: Active
[15]
  inhibition: inactive
[16]
  inhibition: inactive
[17]
  Activity: inactive
[18]
  Activity: 47%
[19]
  Activity: 0.1%
[20]
  Activity: 4%
[21]
  Activity: 33.7%
[22]
  Activity: inactive
[23]
  Activity: inactive
[24]
  Activity: Active
[25]
  Activity: Active
[26]
  Activity: inactive
[27]
  Activity: Active
[28]
  Activity: Active
[29]
  Activity: Active
[30]
  Activity: 46.67%
[31]
  Activity: 46.26%
[32]
  Activity: 49.36 fL
[33]
  Activity: Non-Toxic
